Reference: ChEMBL document CHEMBL5247592, “Discovery of novel VEGFR-2-PROTAC degraders based on the localization of lysine residues via recruiting VHL for the treatment of gastric cancer” (Eur J Med Chem, 2022)
The source made the active and inactive calls. No cut-off for these calls is given here.

Tests used:
HGC-27 [1] = test: Induction of apoptosis in human HGC-27 cells assessed as viable cells at 0.33 uM incubated for 24 hrs by Annexin V-FITC/PI staining based analysis (reference value: 95.3%); format: functional; conditions: read-out: Activity
HGC-27 [2] = test: Induction of apoptosis in human HGC-27 cells assessed as necrotic cells at 3.3 uM incubated for 24 hrs by Annexin V-FITC/PI staining based analysis (reference value: 0.65 %); format: functional
HGC-27 [3] = test: Induction of apoptosis in human HGC-27 cells assessed as early apoptotic cells at 0.033 uM incubated for 24 hrs by Annexin V-FITC/PI staining based analysis (reference value: 1.7 %); format: functional
HGC-27 [4] = test: Antiproliferative activity against human HGC-27 cells assessed as inhibition of cell growth incubated for 72 hrs by MTT assay; format: functional, cell-based; conditions: HGC-27, 72 h
HGC-27 [5] = test: Induction of apoptosis in human HGC-27 cells assessed as viable cells at 0.1 uM incubated for 24 hrs by Annexin V-FITC/PI staining based analysis (reference value: 95.3%); format: functional; conditions: read-out: Activity
HGC-27 [6] = test: Inhibition of cell migration in human HGC-27 cells measured upto 24 hrs by wound healing assay; format: functional, cell-based; conditions: dose 0.033-3.33 µM
[7] = biological target: T1, von Hippel-Lindau disease tumor suppressor/Vascular endothelial growth factor receptor 2 (Homo sapiens, UniProt P35968+P40337); test: PROTAC activity at VHL/VEGFR2 in human HGC-27 cells assessed as induction of VEGRF2 protein degradation at 1 uM preincubated with MG-132 for 2 hrs followed by compound addition and measured after 24 hrs by Western blot analysis; format: cell-based
T1 sequence (P35968 20-1356 limits assumed): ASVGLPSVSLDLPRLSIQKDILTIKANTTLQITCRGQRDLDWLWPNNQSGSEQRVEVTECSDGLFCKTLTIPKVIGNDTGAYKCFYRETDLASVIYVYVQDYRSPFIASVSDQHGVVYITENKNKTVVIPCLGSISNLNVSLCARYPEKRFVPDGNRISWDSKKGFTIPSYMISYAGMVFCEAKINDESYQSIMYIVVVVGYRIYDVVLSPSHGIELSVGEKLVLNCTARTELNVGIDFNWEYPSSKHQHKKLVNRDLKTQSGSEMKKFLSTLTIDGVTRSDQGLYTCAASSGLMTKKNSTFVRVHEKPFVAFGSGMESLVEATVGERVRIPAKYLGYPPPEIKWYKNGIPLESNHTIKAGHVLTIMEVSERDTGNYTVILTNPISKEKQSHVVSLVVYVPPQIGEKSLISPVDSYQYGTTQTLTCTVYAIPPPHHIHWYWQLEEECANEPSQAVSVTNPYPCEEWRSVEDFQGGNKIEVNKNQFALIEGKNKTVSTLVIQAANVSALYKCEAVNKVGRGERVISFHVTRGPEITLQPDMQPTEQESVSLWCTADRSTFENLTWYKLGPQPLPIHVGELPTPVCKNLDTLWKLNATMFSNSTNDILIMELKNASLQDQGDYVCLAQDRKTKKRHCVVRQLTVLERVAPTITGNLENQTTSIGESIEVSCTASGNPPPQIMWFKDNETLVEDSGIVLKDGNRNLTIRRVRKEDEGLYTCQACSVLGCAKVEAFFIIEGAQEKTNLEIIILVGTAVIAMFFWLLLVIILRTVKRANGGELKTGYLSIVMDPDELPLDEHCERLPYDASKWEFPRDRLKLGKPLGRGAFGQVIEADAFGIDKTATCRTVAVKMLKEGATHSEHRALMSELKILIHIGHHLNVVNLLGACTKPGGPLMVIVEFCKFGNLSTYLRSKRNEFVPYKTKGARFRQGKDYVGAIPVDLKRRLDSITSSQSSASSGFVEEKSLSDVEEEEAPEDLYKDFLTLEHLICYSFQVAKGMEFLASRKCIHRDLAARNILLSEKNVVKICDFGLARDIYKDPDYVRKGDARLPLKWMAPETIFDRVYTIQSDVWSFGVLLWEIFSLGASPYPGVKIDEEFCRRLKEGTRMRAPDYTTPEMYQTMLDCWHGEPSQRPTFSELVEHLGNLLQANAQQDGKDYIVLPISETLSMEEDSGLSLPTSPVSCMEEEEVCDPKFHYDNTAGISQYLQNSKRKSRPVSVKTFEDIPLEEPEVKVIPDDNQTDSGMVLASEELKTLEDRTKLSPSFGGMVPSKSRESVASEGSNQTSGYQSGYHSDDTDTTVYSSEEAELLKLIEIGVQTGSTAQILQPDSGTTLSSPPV
T1 sequence (P40337 whole entry partner): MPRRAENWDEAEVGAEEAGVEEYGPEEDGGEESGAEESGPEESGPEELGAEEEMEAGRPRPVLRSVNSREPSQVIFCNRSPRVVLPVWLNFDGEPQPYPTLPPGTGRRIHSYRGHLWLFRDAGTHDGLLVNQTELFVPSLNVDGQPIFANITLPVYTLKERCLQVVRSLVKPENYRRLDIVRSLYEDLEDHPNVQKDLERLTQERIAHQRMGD

HGC-27 [8] = test: Inhibition of cell migration in human HGC-27 cells assessed as suppression of cell migration at 1 uM incubated for 6 hrs by wound healing assay relative to control; format: functional
HGC-27 [9] = test: Induction of apoptosis in human HGC-27 cells assessed as viable cells at 1 uM incubated for 24 hrs by Annexin V-FITC/PI staining based analysis (reference value: 95.3%); format: functional; conditions: read-out: Activity
[10] = biological target: T1, von Hippel-Lindau disease tumor suppressor/Vascular endothelial growth factor receptor 2; test: PROTAC activity at VHL/VEGFR2 in human HGC-27 cells assessed as induction of VEGFR2 degradation at 1 uM measured after 4 hrs by Western blot analysis relative to control; format: cell-based
[11] = biological target: T1, von Hippel-Lindau disease tumor suppressor/Vascular endothelial growth factor receptor 2; test: PROTAC activity at VHL/VEGFR2 in human HGC-27 cells assessed as residual activity by measuring VEGFR2 expression level at 1 uM incubated for 24 hrs followed by compound washout and measured after 4 hrs by Western blot analysis relative to control; format: cell-based
HGC-27 [12] = test: Induction of apoptosis in human HGC-27 cells assessed as late apoptotic cells at 3.3 uM incubated for 24 hrs by Annexin V-FITC/PI staining based analysis (reference value: 3%); format: functional
HGC-27 [13] = test: Induction of apoptosis in human HGC-27 cells assessed as early apoptotic cells at 0.33 uM incubated for 24 hrs by Annexin V-FITC/PI staining based analysis (reference value: 1.7 %); format: functional
HGC-27 [14] = test: Antiinvasive activity in human HGC-27 cells assessed as reduction in number of invasive cells at 0.1 uM incubated for 24 hrs by transwell invasion assay (reference value: 118); format: functional
[15] = Effect on VEGFR2 mRNA expression in human HGC-27 cells at 0.1 uM incubated for 24 hrs by qPCR analysis relative to control; format: functional
HGC-27 [16] = test: Induction of cell cycle arrest in human HGC-27 cells assessed as S phase cells at 1 uM incubated for 24 hrs by PI staining based flow cytometric analysis (reference value: 26.4%); format: functional
HGC-27 [17] = test: Induction of apoptosis in human HGC-27 cells assessed as late apoptotic cells at 0.1 uM incubated for 24 hrs by Annexin V-FITC/PI staining based analysis (reference value: 3%); format: functional
HGC-27 [18] = test: Induction of cell cycle arrest in human HGC-27 cells assessed as S phase cells at 0.1 uM incubated for 24 hrs by PI staining based flow cytometric analysis (reference value: 26.4%); format: functional
HGC-27 [19] = test: Induction of cell cycle arrest in human HGC-27 cells assessed as G0/G1 phase cells at 1 uM incubated for 24 hrs by PI staining based flow cytometric analysis (reference value: 47.4%); format: functional
[20] = Effect on VEGFR2 mRNA expression in human HGC-27 cells at 3.33 uM incubated for 24 hrs by qPCR analysis relative to control; format: functional
[21] = biological target: T1, von Hippel-Lindau disease tumor suppressor/Vascular endothelial growth factor receptor 2; test: PROTAC activity at VHL/VEGFR2 in HUVEC cells assessed as reduction in VEGFR2 protein level at 10 uM incubated for 24 hrs by Western blot analysis; format: cell-based
[22] = biological target: T1, von Hippel-Lindau disease tumor suppressor/Vascular endothelial growth factor receptor 2; test: PROTAC activity at VHL/VEGFR2 in human HGC-27 cells assessed as residual activity by measuring VEGFR2 expression level at 1 uM incubated for 24 hrs followed by compound washout and measured after 36 hrs by Western blot analysis relative to control; format: cell-based

Activity [7]: inactive
Activity [10]: 16.9%
Activity [11]: 32.8%
Activity [21]: inactive
Activity [22]: 131%
Compound: Cc1ccc(NC(=O)Cn2cc(-c3ccc4c(NC(=O)c5ccc(NC(=O)CCCCCCCCC(=O)N[C@H](C(=O)N6C[C@H](O)C[C@H]6C(=O)NCc6ccc(-c7scnc7C)cc6)C(C)(C)C)cc5)n[nH]c4c3)cn2)cc1C(F)(F)F
viability at 0.33 µM (HGC-27 [1]): 89.1%
Activity (HGC-27 [2]): 0.52%
Activity (HGC-27 [3]): 2%
IC50 (HGC-27 [4]): 2.03 µM
viability at 0.1 µM (HGC-27 [5]): 92.1%
inhibition (HGC-27 [6]): Dose-Dependent Effect
inhibition at 1 µM (HGC-27 [8]): 11.7%
viability at 1 µM (HGC-27 [9]): 76.5%
Activity (HGC-27 [12]): 30.5%
Activity (HGC-27 [13]): 3.2%
Activity (HGC-27 [14]): 100
Activity [15]: 90%
Activity (HGC-27 [16]): 28.5%
Activity (HGC-27 [17]): 4.2%
Activity (HGC-27 [18]): 25.8%
Activity (HGC-27 [19]): 12.5%
Activity [20]: 105.3%
